Measurements as given in patent publication US11827690B2, “ApoC-II mimetic peptides” (THE UNITED STATES OF AMERICA, as represented by the …, priority 2017, dated 2023).

Assays:
bovine LPL = molecular target: T1, bovine LPL (Bos taurus, UniProt P11151); assay: in vitro LPL assay using hypertriglyceridemia patient sera as substrate; assay type: biochemical; settings: patient sera TG about 1000 mg/dL to about 1700 mg/dL, FIGS. 15A-D
T1 sequence (P11151 29-478): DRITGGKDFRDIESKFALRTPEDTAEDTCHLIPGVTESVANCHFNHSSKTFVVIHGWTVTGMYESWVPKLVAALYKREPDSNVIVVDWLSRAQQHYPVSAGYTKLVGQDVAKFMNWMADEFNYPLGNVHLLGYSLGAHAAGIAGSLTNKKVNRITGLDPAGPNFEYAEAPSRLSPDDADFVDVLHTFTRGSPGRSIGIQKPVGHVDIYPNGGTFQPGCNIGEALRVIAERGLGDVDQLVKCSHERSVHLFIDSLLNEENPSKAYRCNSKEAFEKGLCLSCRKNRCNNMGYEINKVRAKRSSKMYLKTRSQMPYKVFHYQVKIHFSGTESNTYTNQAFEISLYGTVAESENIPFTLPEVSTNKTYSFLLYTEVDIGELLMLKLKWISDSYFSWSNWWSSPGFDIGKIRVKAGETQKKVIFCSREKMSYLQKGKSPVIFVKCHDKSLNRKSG
Summary of the method: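 Bovine LPL (diluted stock) added to Intralipid or human or mouse plasma with BSA and peptides in triplicate, held 30 min on ice, then incubated 1 hour at 37° C. Released free fatty acids measured by colorimetric NEFA assay at 550/660 nm against an oleic acid standard.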

apoC-II knockout mice = assay: serum TG of apoC-II knockout mice after Intralipid injection; assay type: in vivo; settings: peptide IP 1 hour after Intralipid, 5 and 10 μmole/kg, FIG. 37B
Method: C57Bl/6 mice (wild-type), apoC-II knockout (apoC-II KO) mice, and apoC-III transgenic mice were used for in vivo study. The C57Bl/6 mice (wild-type) were purchased from Taconic Biosciences Inc. The apoC-II KO mice were created as described in Sakurai et al., J Pharmacol Exp Ther 356:341-353, 2016. The apoC-III transgenic mice were generated by overexpressing human apoC-III in C57Bl/6 mice. See Qu et al., J. Lipid Res. 48:1476-1487, 2007.
Mice were fasted overnight (approximately 12 hours) before the study and 6 hours during the study, the next day. The apoC-II mimetic peptides were synthetically produced and free of biological contamination (not available as FDA approved compounds/treatment). Peptides were produced and used in sterile conditions and filtered by 0.2 nm filter before injections in a single dose 1-10 μmol/kg body weight (B. W.) administered either subcutaneous injection (S.Q. or S.C.), intraperitoneal injection (I.P.) or intravenous injection (I.V.) (in a sterile, pharmaceutical grade PBS solution at a volume ≤200 μL) as described in Sakurai et al., J Pharmacol Exp Ther 356:341-353, 2016. […]

[1] = tested on: chylomicrons isolated from human plasma; assay: ApoC-III displacement study in chylomicrons isolated from human plasma; assay type: binding
Method: VLDL or chylomicrons isolated from human plasma were incubated with an apoC-II mimetic peptide for 1 hour at 37° C. and washed 3 times with PBS using spin filter with 100 kDa cutoff membrane. Supernatants were brought to the original volume with PBS and loaded to 4-12% Bis-TRIS SDS PAGE gel. ApoC-I, apoC-II, apoC-III, and apoE bands were identified by their corresponding size.

Row | LPL activation (bovine LPL) | Sequence | serum TG increase after Intralipid injection (apoC-II knockout mice) | affinity for chylomicrons compared with the apolipoproteins [1]
1 | activated LPL in vitro | DYLKEVFEKLRDLYEKFTPAVSTYTGIFTDQVLSVLKGEE [Delta6PV] | the TG increase was significantly reduced | –
2 | – | DWLKAFYDKVAEKLKEAFPAMSTYTGIFTDQVLSVLKGEE (listed as Homo sapiens) [apoC-II-a, excluded from the claimed peptides] | – | higher affinity for chylomicrons than the apolipoproteins
